Measured values reported in US9169254B2, “Spiroimidazolone derivative” (Chugai Seiyaku Kabushiki Kaisha, priority 2009, dated 2015).

These molecules were tested against T1, human PTH1 receptor (Homo sapiens, UniProt Q03431) (assay: In vitro cAMP signal activity in HKRK-B7 cells (LLC-PK1 cells overexpressing the human PTH1 receptor)). Settings: HKRK-B7 cells; compound at 1×10^−3 M; cAMP produced as percentage of that produced by hPTH(1-34) at 100 nM.
T1 sequence (Q03431 27-593): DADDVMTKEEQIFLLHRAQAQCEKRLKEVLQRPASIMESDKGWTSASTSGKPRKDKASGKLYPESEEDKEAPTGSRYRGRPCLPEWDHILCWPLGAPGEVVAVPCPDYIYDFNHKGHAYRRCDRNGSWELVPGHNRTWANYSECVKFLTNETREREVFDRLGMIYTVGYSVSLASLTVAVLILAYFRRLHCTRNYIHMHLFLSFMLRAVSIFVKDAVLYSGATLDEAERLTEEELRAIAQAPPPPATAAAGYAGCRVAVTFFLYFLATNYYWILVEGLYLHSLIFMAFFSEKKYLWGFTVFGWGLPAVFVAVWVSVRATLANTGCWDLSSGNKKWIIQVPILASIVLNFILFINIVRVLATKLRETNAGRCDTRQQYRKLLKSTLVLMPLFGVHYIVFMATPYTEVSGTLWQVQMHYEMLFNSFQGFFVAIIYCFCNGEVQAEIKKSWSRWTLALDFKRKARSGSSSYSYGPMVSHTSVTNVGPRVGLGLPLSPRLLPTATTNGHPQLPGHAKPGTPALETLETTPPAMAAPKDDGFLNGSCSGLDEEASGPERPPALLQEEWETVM
Format: cell-based

SMILES | cAMP production activity (%)
Cc1cc2[nH]c(=O)oc2c(C)c1CCS(=O)(=O)N1CCC2(CC1)N=C([C@H]1CC[C@H](C)CC1)NC2=O [Compound 671, 8-[2-(5,7-Dimethyl-2-oxo-2,3-dihydro-benzoxazol-6-yl)-ethanesulfonyl]-2-(4-methyl-cyclohexyl)-1,3,8-triaza-spiro[4.5]dec-1-en-4-one] | 81
CCCCCCCCCC1=NC2(CCN(S(=O)(=O)/C=C/c3ccc(N4C(=O)CNC4=O)cc3C)CC2)C(=O)N1 [Compound 536, 3-{3-Methyl-4-[(E)-2-(2-nonyl-4-oxo-1,3,8-triaza-spiro[4.5]dec-1-ene-8-sulfonyl)-vinyl]-phenyl}-imidazolidine-2,4-dione] | 72
Cc1cc(C(=O)N2CCC[C@@H]2CO)ccc1CCS(=O)(=O)N1CCC2(CC1)N=C(c1cccc(C(F)(F)F)c1)NC2=O [Compound 371, 8-{2-[4-((R)-2-hydroxymethyl-pyrrolidine-1-carbonyl)-2-methyl-phenyl]-ethanesulfonyl}-2-(3-trifluoromethyl-phenyl)-1,3,8-triaza-spiro[4.5]dec-1-en-4-one] | 72
Cc1cc(C(=O)N2CCC(C)(O)CC2)cc(C)c1/C=C/S(=O)(=O)N1CCC2(CC1)N=C(c1ccc(OCC(F)(F)C(F)F)c(Cl)c1)NC2=O [Compound 1201, 2-[3-chloro-4-(2,2,3,3-tetrafluoro-propoxy)-phenyl]-8-{(E)-2-[4-(4-hydroxy-4-methyl-piperidine-1-carbonyl)-2,6-dimethyl-phenyl]-ethenesulfonyl}-1,3,8-triaza-spiro[4.5]dec-1-en-4-one] | 77
CCOCC1CCC(C2=NC3(CCN(S(=O)(=O)CCc4ccc(NC(C)=O)cc4C)CC3)C(=O)N2)CC1 (centres unmarked) [Compound 910, N-(4-{2-[2-(4-ethoxymethyl-cyclohexyl)-4-oxo-1,3,8-triaza-spiro[4.5]dec-1-ene-8-sulfonyl]-ethyl}-3-methyl-phenyl)-acetamide] | 64
Cc1cc(C(=O)N2CCCC2)ccc1CCS(=O)(=O)N1CCC2(CC1)N=C(c1ccc(F)c(C(F)(F)F)c1)NC2=O [Compound 856, 2-(4-fluoro-3-trifluoromethyl-phenyl)-8-{2-[2-methyl-4-(pyrrolidine-1-carbonyl)-phenyl]-ethanesulfonyl}-1,3,8-triaza-spiro[4.5]dec-1-en-4-one] | 81
CCCCCCCCCC1=NC2(CCN(S(=O)(=O)CCc3ccc(C(=O)N4CCC4)cc3C)CC2)C(=O)N1 [Compound 978, 8-{2-[4-(azetidine-1-carbonyl)-2-methyl-phenyl]-ethanesulfonyl}-2-nonyl-1,3,8-triaza-spiro[4.5]dec-1-en-4-one] | 91
CC(=O)NCc1cc(C)c(/C=C/S(=O)(=O)N2CCC3(CC2)N=C(C2CCC(C)CC2)NC3=O)c(C)c1 (centres unmarked) [Compound 522, N-(3,5-dimethyl-4-{(E)-2-[2-(4-methyl-cyclohexyl)-4-oxo-1,3,8-triaza-spiro[4.5]dec-1-ene-8-sulfonyl]-vinyl}-benzyl)-acetamide] | 82
Cc1cc(C(=O)N2CCN(C(=O)CO)CC2)cc(C)c1/C=C/S(=O)(=O)N1CCC2(CC1)N=C(c1cccc(OC(F)(F)F)c1)NC2=O [Compound 447, 8-((E)-2-{4-[4-(2-Hydroxy-acetyl)-piperazine-1-carbonyl]-2,6-dimethyl-phenyl}-ethenesulfonyl)-2-(3-trifluoromethoxy-phenyl)-1,3,8-triaza-spiro[4.5]dec-1-en-4-one] | 89
CCC1CCC(C2=NC3(CCN(S(=O)(=O)CCc4ccc(C(=O)N(C)C)cc4C)CC3)C(=O)N2)CC1 (centres unmarked) [Compound 896, 4-{2-[2-(4-ethyl-cyclohexyl)-4-oxo-1,3,8-triaza-spiro[4.5]dec-1-ene-8-sulfonyl]-ethyl}-3,N,N-trimethyl-benzamide] | 83
CC(C)(C)NC(=O)N1CCCC(C2=NC3(CCN(S(=O)(=O)c4cccc(Cl)c4)CC3)C(=O)N2)C1 (centres unmarked) [Compound 454, 3-[8-(3-Chloro-benzenesulfonyl)-4-oxo-1,3,8-triaza-spiro[4.5]dec-1-en-2-yl]-piperidine-1-carboxylic acid tert-butylamide] | 19
O=C1NC(C2CCCCC2)=NC12CCN(S(=O)(=O)/C=C/c1cccc(F)c1C(F)(F)F)CC2 [Compound 185, 2-cyclohexyl-8-[(E)-2-(3-fluoro-2-trifluoromethyl-phenyl)-ethenesulfonyl]-1,3,8-triaza-spiro[4.5]dec-1-en-4-one] | 33
CN(C)C(=O)n1ccc2c(CCS(=O)(=O)N3CCC4(CC3)N=C(C3CCCCC3)NC4=O)cccc21 [Compound 310, 4-[2-(2-cyclohexyl-4-oxo-1,3,8-triaza-spiro[4.5]dec-1-ene-8-sulfonyl)-ethyl]-indole-1-carboxylic acid dimethylamide] | 76
CC(=O)Nc1ccc(CCS(=O)(=O)N2CCC3(CC2)N=C([C@H]2CC[C@@H](OCCCF)CC2)NC3=O)c(C)c1 [Compound 914, N-[4-(2-{2-[4-(3-fluoro-propoxy)-cyclohexyl]-4-oxo-1,3,8-triaza-spiro[4.5]dec-1-ene-8-sulfonyl}-ethyl)-3-methyl-phenyl]-acetamide] | 68
CN(C)C(=O)NCCc1ccc(/C=C/S(=O)(=O)N2CCC3(CC2)N=C(C2CCCCC2)NC3=O)cc1 [Compound 490, 3-(2-{4-[(E)-2-(2-cyclohexyl-4-oxo-1,3,8-triaza-spiro[4.5]dec-1-ene-8-sulfonyl)-vinyl]-phenyl}-ethyl)-1,1-dimethyl-urea] | 26
Cc1cc(C(=O)N2CCC(C)(O)CC2)cc(C)c1/C=C/S(=O)(=O)N1CCC2(CC1)N=C(c1ccc3c(c1)OC(F)(F)O3)NC2=O [Compound 1163, 2-(2,2-Difluoro-benzo[1,3]dioxol-5-yl)-8-{(E)-2-[4-(4-hydroxy-4-methyl-piperidine-1-carbonyl)-2,6-dimethyl-phenyl]-ethenesulfonyl}-1,3,8-triaza-spiro[4.5]dec-1-en-4-one] | 101
Cc1cc(C(=O)N(C)C)ccc1CCS(=O)(=O)N1CCC2(CC1)N=C(/C=C/c1ccccc1)NC2=O [Compound 142, 3,N,N-trimethyl-4-{2-[4-oxo-2-((E)-styryl)-1,3,8-triaza-spiro[4.5]dec-1-ene-8-sulfonyl]-ethyl}-benzamide] | 63
Cc1cc(C(=O)N(C)C)cc(C)c1/C=C/S(=O)(=O)N1CCC2(CC1)N=C(c1cccc(OC(F)(F)F)c1)NC2=O [Compound 961, 3,5,N,N-tetramethyl-4-{(E)-2-[4-oxo-2-(3-trifluoromethoxy-phenyl)-1,3,8-triaza-spiro[4.5]dec-1-ene-8-sulfonyl]-vinyl}-benzamide] | 92
Cc1cc(OCCC(O)CO)cc(C)c1CCS(=O)(=O)N1CCC2(CC1)N=C(c1ccc(F)c(C(F)(F)F)c1)NC2=O (centres unmarked) [Compound 801, 8-{2-[4-(3,4-dihydroxy-butoxy)-2,6-dimethyl-phenyl]-ethanesulfonyl}-2-(4-fluoro-3-trifluoromethyl-phenyl)-1,3,8-triaza-spiro[4.5]dec-1-en-4-one] | 103
CC(=O)N(C)c1cc(C)c(CCS(=O)(=O)N2CCC3(CC2)N=C(CCCCCCC(F)(F)F)NC3=O)c(C)c1 [Compound 1044, N-(3,5-Dimethyl-4-{2-[4-oxo-2-(7,7,7-trifluoro-heptyl)-1,3,8-triaza-spiro[4.5]dec-1-ene-8-sulfonyl]-ethyl}-phenyl)-N-methyl-acetamide] | 86
